Drawing on US11040031B2, “Pyrazole derivatives as MALT1 inhibitors” (Janssen Pharmaceutica NV, priority 2018, dated 2021), this text covers IC50 for 14 compounds.

For experiment [1], the system named is Secretion of IL10 by TMD8 ABC-DLBCL cells. In words: Human IL10 Mesoscale assay (TMD-8). The class given is cell-based. Conditions: TMD8 cells, 24 h incubation, supernatant, MSD V-Plex, read-out: Human IL10 Mesoscale assay (TMD-8). The procedure: NFKB signaling regulates the secretion of multiple cytokines, including IL6 and IL10. Secretion of the cytokines IL6 and IL10 by TMD8 or OCI-LY3 ABC-DLBCL cells was measured using a mesoscale assay.
Cell passage number should not exceed 30. Cells should be kept between 0.5-2.5 million cells per mL during culturing and cells should be supplemented every 2-3 days with fresh 50 µM beta-mercaptoenthanol. No beta-mercaptoethanol was used during the mesoscale assay.
DMSO control wells were used to determine the maximum signal (High Control (HC)). […] Compounds and cells were incubated for 24 h at 37° C. and 5% CO2 (assay volume is 150 μL). After 24 h of incubation 50 μL of the supernatant was transferred to a MSD plate (V-Plex Proinflammation Panel 1 (human) kit, Mesoscale (MSD)) and incubated for 2 h with vigorous shaking (600 rpm) at room temperature. Following incubation, plates were washed 3× with PBS+0.05% Tween-20 and 25 μL detection antibody solution (IL6 & IL10 antibodies in diluent 3 (MSD)) was added per well followed by 2 h of incubation with vigorous shaking (600 rpm) at room temperature. After 3× washes with PBS+0.05% Tween-20, plates were incubated with 150 μL 2× Read Buffer T and read on SECTOR imager.

Experiment [2] deals with OCI-Ly3 ABC-DLBCL cell line. In words: 4-day proliferation assay OCI-Ly3. Conditions: Homo sapiens, read-out: Anti-proliferation: OCI-LY-3 IC50. The class given is cell-based. The procedure: To assess anti-proliferative effects, MALT1 inhibitor test compounds were tested in 4-day proliferation assays using three different DLBCL cell lines.
Cells should be kept between 0.5-2.5 million cells per mL during culturing and cells should be supplemented every 2-3 days with fresh 50 μM beta-mercaptoenthanol. No beta-mercaptoethanol is used during the proliferation assay. OCI-Ly7 cells were propagated in IMDM (ThermoFisher) supplemented with 10% fetal bovine serum (HyClone), 2 mM L-glutamine (Sigma Aldrich) and 50 μg/mL Gentamycin. Cell passage numbers should not exceed 30.
10,000 TMD8, 10,000 OCI-Ly3 or 2,000 OCI-Ly7 cells were seeded in 100 μL media per well and incubated for 4 days at 37° C. and 5% CO2. Cell plating numbers were chosen based on growth curves to ensure linear cell growth. After 4 days of incubation 50 μl CellTiterGLO reagent (Promega) were added to each well and luminescence was measured on the Envision after 10 min of incubation at room temperature.

In experiment [3] the target is T1, full-length MALT1 protein (Strep-MALT1(1-824)-His) (Homo sapiens, UniProt Q9UDY8).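 Further: fluorogenic LRSR-AMC substrate cleavage by MALT1, 50 min compound preincubation then 4 h reaction at RT, 11-point dilution from 30 µM, scaled between enzyme-free and untreated enzyme controls.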
T1 sequence (Q9UDY8 1-824): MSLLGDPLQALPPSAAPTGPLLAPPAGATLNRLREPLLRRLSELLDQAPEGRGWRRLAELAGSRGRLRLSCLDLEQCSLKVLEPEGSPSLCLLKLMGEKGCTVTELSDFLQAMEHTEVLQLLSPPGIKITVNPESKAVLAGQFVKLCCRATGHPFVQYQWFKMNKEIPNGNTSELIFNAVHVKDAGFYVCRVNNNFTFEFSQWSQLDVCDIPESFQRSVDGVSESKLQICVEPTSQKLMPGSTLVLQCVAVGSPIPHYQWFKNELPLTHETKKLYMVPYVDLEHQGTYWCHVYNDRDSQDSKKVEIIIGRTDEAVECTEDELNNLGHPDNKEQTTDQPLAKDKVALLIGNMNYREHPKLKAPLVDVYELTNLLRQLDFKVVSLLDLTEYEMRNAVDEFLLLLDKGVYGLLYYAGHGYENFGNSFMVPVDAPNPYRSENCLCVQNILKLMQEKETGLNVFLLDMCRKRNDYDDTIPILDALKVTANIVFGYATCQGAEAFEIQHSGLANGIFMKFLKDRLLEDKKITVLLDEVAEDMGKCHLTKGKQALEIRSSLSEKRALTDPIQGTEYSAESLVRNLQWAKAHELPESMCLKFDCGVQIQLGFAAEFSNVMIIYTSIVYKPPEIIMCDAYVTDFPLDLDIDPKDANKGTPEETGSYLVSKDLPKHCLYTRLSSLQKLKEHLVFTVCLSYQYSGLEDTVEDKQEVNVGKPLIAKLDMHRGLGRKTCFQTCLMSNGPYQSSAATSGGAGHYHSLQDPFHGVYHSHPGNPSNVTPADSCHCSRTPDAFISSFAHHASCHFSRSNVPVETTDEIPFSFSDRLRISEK
The experiment is described as follows: biochemical.
Procedure: MALT1 protease activity was assessed in an in vitro assay using a tetrapeptide as substrate and full-length MALT1 protein (Strep-MALT1(1-824)-His) purified from baculovirus-infected insect cells. The tetrapeptide LRSR is coupled to AMC (7-amino-4-methylcoumarin) and provides a quenched, fluorescent substrate for the MALT1 protease (SM Biochemicals). Cleavage of AMC from the Arginine residue results in an increase in coumarin fluorescence measured at 460 nm (excitation 355 nm). […] Test compounds were spotted at 50 nL in 100% DMSO per well of a black 384-Proxiplate (Perkin Elmer). Test compound concentrations ranged from 30 μM to 0.5 nM using 11 dilution steps (1:3). Background signal was measured from control wells containing assay buffer without enzyme which functions as low control (LC). High control (HC) values were generated using the reaction with enzyme but no compound treatment. Compounds were pre-incubated with MALT1 enzyme for 50 minutes at RT. Substrate was added subsequently and fluorescence was measured in Labsystems fluoroskan at excitation 355 nm and emission 460 nm to determine time 0. The reaction was subsequently incubated for 4 h at RT and fluorescence was measured. […] The enzyme reaction was linear during the 4 h incubation period.
IC50 values were calculated using the following formula (Z prime should be >0.5):
From this an IC50 value (inhibitory concentration causing 50% inhibition) can be obtained. An estimate of the slope of the plot in terms of the Hill coefficient was also obtained.
With y=estimated response • UB=upper bound • LB=lower bound • h=hill

Experiment [4] deals with Secretion of IL10 by OCI-LY3 ABC-DLBCL cells. In words: Human IL10 Mesoscale assay (OCI-LY3). Type of experiment: cell-based. To be noted: read-out: Human IL10 Mesoscale assay (OCI-LY3). An outline of the steps:
(§1)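 TMD8 or OCI-LY3 ABC-DLBCL cells incubated with compound 24 h at 37° C without beta-mercaptoethanol. Secreted IL6 and IL10 in supernatant quantified by MSD electrochemiluminescence immunoassay; DMSO wells define maximum signal.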

Experiment [5] deals with Secretion of IL6 by OCI-LY3 ABC-DLBCL cells. In words: Human IL6 Mesoscale assay (OCI-LY3). To be noted: read-out: Human IL6 Mesoscale assay (OCI-LY3). The class given is cell-based. An outline of the steps:
as §1

Setting [6] is: 96 h, 10,000 OCI-Ly3 cells per well, 4 days, CellTiterGLO.
Where [7] appears, read: OCI-LY3 cells, 24 h incubation, supernatant, MSD V-Plex.

Like-named read-outs stand apart in the source and are kept apart here.

As for `Cc1cccnc1-n1ncc(C(=O)Nc2cnc(-n3nccn3)c(Cl)c2)c1C(F)(F)F` [Cpd 3, N-(5-Chloro-6-(2H-1,2,3-triazol-2-yl)pyridin-3-yl)-1-(3-methylpyridin-2-yl)-5-(trifluoromethyl)-1H-pyrazole-4-carboxamide], the IC50 in experiment [1] was 832 nM; in experiment [2] (setting [6]), 2460 nM; in experiment [3] it was 282 nM.

`Nc1nccc(-n2ncc(C(=O)Nc3cnc(-n4nccn4)c(Cl)c3)c2C(F)(F)F)c1Cl` [Cpd 57, 1-(2-amino-3-chloropyridin-4-yl)-N-(5-chloro-6-(2H-1,2,3-triazol-2-yl)pyridin-3-yl)-5-(trifluoromethyl)-1H-pyrazole-4-carboxamide]: the IC50 in experiment [4] (OCI-Ly3, 24 h) is 117 nM; in experiment [5] (OCI-Ly3, 24 h), 162 nM; in experiment [2] (OCI-Ly3, 96 h), 1200 nM; in experiment [3] it was 107 nM.

Regarding `O=C(Nc1cnc(-n2nccn2)c(Cl)c1)c1cnn(-c2cccc3c2OC(F)(F)O3)c1C(F)(F)F` [Cpd 58, N-(5-chloro-6-(2H-1,2,3-triazol-2-yl)pyridin-3-yl)-1-(2,2-difluorobenzo[d][1,3]dioxol-4-yl)-5-(trifluoromethyl)-1H-pyrazole-4-carboxamide], the IC50 in experiment [4] (setting [7]) was found to be 195 nM; in experiment [5] (setting [7]), 407 nM; in experiment [2] (setting [6]), 7240 nM; in experiment [3], 145 nM.

As for `N#Cc1cc(NC(=O)c2cnn(-c3ccc(F)c(F)c3Cl)c2C(F)(F)F)cnc1-n1nccn1` [Cpd 60, 1-(2-chloro-3,4-difluorophenyl)-N-(5-cyano-6-(2H-1,2,3-triazol-2-yl)pyridin-3-yl)-5-(trifluoromethyl)-1H-pyrazole-4-carboxamide], the IC50 in experiment [4] (setting [7]) is 151 nM; in experiment [5] (setting [7]), 178 nM; in experiment [2] (setting [6]) it was 741 nM; in experiment [3], 71 nM.

With `Nc1nc(-n2ncc(C(=O)Nc3cnc(-n4nccn4)c(Cl)c3)c2C(F)(F)F)ccc1F` [Cpd 62, 1-(6-amino-5-fluoropyridin-2-yl)-N-(5-chloro-6-(2H-1,2,3-triazol-2-yl)pyridin-3-yl)-5-(trifluoromethyl)-1H-pyrazole-4-carboxamide], the IC50 came to 427 nM in experiment [4] (setting [7]), 380 nM in experiment [5] (setting [7]), 912 nM in experiment [2] (setting [6]) and 45 nM in experiment [3].

Consider `N#Cc1cc(NC(=O)c2cnn(-c3ccc(F)c(N)n3)c2C(F)(F)F)cnc1-n1nccn1` [Cpd 63, 1-(6-amino-5-fluoropyridin-2-yl)-N-(5-cyano-6-(2H-1,2,3-triazol-2-yl)pyridin-3-yl)-5-(trifluoromethyl)-1H-pyrazole-4-carboxamide], for which the IC50 was determined as 49 nM in experiment [4] (setting [7]), 69 nM in experiment [5] (setting [7]), 2510 nM in experiment [2] (setting [6]) and 24 nM in experiment [3].

Take `COc1cc(F)ccc1-n1ncc(C(=O)Nc2cnc(-n3nccn3)c(Cl)c2)c1C(F)(F)F` [Cpd 81, N-(5-chloro-6-(2H-1,2,3-triazol-2-yl)pyridin-3-yl)-1-(4-fluoro-2-methoxyphenyl)-5-(trifluoromethyl)-1H-pyrazole-4-carboxamide]: the IC50 in experiment [4] (setting [7]) is 138 nM; in experiment [5] (setting [7]) it was 138 nM; in experiment [2] (setting [6]) it was 1260 nM; in experiment [3], 162 nM.

As for `N#Cc1cc(NC(=O)c2cnn(-c3c(F)cccc3Cl)c2C(F)(F)F)cnc1-n1nccn1` [Cpd 98, 1-(2-chloro-6-fluorophenyl)-N-(5-cyano-6-(2H-1,2,3-triazol-2-yl)pyridin-3-yl)-5-(trifluoromethyl)-1H-pyrazole-4-carboxamide], the IC50 in experiment [4] (setting [7]) was determined as 166 nM; in experiment [5] (setting [7]), 191 nM; in experiment [2] (setting [6]), 437 nM; in experiment [3], 263 nM.

In the case of `N#Cc1cc(NC(=O)c2cnn(-c3c(F)cc(F)cc3Cl)c2C(F)(F)F)cnc1-n1nccn1` [Cpd 99, 1-(2-chloro-4,6-difluorophenyl)-N-(5-cyano-6-(2H-1,2,3-triazol-2-yl)pyridin-3-yl)-5-(trifluoromethyl)-1H-pyrazole-4-carboxamide], the IC50 was 174 nM in experiment [4] (OCI-Ly3, 24 h); 148 nM in experiment [5] (OCI-Ly3, 24 h); 324 nM in experiment [2] (OCI-Ly3, 96 h); 170 nM in experiment [3].

Take `N#Cc1cc(NC(=O)c2cnn(-c3ccccc3C3CC3)c2C(F)(F)F)cnc1-n1nccn1` [Cpd 100, N-(5-cyano-6-(2H-1,2,3-triazol-2-yl)pyridin-3-yl)-1-(2-cyclopropylphenyl)-5-(trifluoromethyl)-1H-pyrazole-4-carboxamide]: the IC50 was 93 nM in experiment [4] (setting [7]), 129 nM in experiment [5] (setting [7]), 269 nM in experiment [2] (setting [6]) and 170 nM in experiment [3].

In the case of `Cc1cccc(F)c1-n1ncc(C(=O)Nc2cnc(-n3nccn3)c(C#N)c2)c1C(F)(F)F` [Cpd 101, N-(5-cyano-6-(2H-1,2,3-triazol-2-yl)pyridin-3-yl)-1-(2-fluoro-6-methylphenyl)-5-(trifluoromethyl)-1H-pyrazole-4-carboxamide], the IC50 is 120 nM in experiment [4] (setting [7]), 166 nM in experiment [5] (setting [7]), 479 nM in experiment [2] (setting [6]) and 151 nM in experiment [3].

Regarding `Cc1ccc(F)cc1-n1ncc(C(=O)Nc2cnc(-n3nccn3)c(C#N)c2)c1C(F)(F)F` [Cpd 103, N-(5-cyano-6-(2H-1,2,3-triazol-2-yl)pyridin-3-yl)-1-(5-fluoro-2-methylphenyl)-5-(trifluoromethyl)-1H-pyrazole-4-carboxamide], the IC50 was 141 nM in experiment [4] (OCI-Ly3, 24 h); 129 nM in experiment [5] (OCI-Ly3, 24 h); 275 nM in experiment [2] (OCI-Ly3, 96 h); 148 nM in experiment [3].

Regarding `N#Cc1cc(NC(=O)c2cnn(-c3ccc(F)cc3F)c2C(F)(F)F)cnc1-n1nccn1` [Cpd 111, N-(5-cyano-6-(2H-1,2,3-triazol-2-yl)pyridin-3-yl)-1-(2,4-difluorophenyl)-5-(trifluoromethyl)-1H-pyrazole-4-carboxamide], the IC50 worked out at 63 nM in experiment [4] (setting [7]), 71 nM in experiment [5] (setting [7]), 1820 nM in experiment [2] (setting [6]) and 112 nM in experiment [3].

For `Cc1nc(-n2ncc(C(=O)Nc3cnc(-n4nccn4)c(C#N)c3)c2C(F)(F)F)ccc1F` [Cpd 160, N-(5-cyano-6-(2H-1,2,3-triazol-2-yl)pyridin-3-yl)-1-(5-fluoro-6-methylpyridin-2-yl)-5-(trifluoromethyl)-1H-pyrazole-4-carboxamide], the IC50 came out at 457 nM in experiment [4] (setting [7]), 646 nM in experiment [5] (setting [7]), 490 nM in experiment [2] (setting [6]) and 288 nM in experiment [3].
